Among the data in patent US20260347338A1, “PYRIMIDINE/PYRIDINE DERIVATIVES OR SALTS THEREOF AND PHARMACEUTICAL COMPOSITIONS COMPRISING THE SAME” (YUHAN CORPORATION, priority 2023, published 2026) are IC50 values, retold here.

What is called IC50 is the concentration that inhibits the measured activity by half.

Molecules are shown by their SMILES. Structures can show the parent of a compound that is named as a salt.

This test deals with T1, human recombinant HPK1 (Homo sapiens, UniProt Q92918).
T1 construct: purchased BPS Bioscience
As to the kind of experiment: Inhibitory activity against human recombinant HPK1 (TR-FRET). The test is classed as biochemical. Particulars: ULight-p70S6K peptide, ATP at Km, room temperature, 1 hour, 0.32 to 1000 nM compound. In a few lines: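 IC50 classes A–D use 10, 50 and 100 nM cut-offs, derived from TR-FRET signal inhibition relative to DMSO controls. Human recombinant HPK1 phosphorylated ULight-p70S6K peptide at Km ATP for 1 h, room temperature, pH 7.4; test range 0.32–1000 nM final, detection with Eu-labelled antibody after EDTA quench.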
(In general: Time-resolved FRET reads energy transfer from a long-lived donor to a nearby acceptor.)

T1 sequence (Q92918 whole entry): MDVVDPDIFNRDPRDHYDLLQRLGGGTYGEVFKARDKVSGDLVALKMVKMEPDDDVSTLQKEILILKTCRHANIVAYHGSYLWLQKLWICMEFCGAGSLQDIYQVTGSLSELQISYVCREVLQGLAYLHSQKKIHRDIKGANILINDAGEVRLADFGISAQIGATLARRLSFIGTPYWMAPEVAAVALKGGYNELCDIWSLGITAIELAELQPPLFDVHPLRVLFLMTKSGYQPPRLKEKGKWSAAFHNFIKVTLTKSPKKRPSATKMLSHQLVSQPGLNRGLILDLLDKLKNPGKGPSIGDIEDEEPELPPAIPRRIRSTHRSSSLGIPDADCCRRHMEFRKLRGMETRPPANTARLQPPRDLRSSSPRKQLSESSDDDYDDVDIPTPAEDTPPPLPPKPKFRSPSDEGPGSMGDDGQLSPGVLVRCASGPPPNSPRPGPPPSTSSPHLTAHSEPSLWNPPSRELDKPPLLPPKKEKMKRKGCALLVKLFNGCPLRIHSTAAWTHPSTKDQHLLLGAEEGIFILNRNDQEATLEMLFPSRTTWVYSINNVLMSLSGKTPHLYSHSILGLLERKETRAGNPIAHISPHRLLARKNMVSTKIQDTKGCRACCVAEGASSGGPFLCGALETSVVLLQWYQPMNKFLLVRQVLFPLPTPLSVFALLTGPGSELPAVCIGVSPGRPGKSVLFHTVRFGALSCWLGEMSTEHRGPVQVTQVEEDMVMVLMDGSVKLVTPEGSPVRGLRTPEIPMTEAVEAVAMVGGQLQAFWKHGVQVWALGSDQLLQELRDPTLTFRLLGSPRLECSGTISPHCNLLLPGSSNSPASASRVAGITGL

Consider `COc1cc(F)cc(F)c1-c1nccc(Nc2cc(N3CCC[C@H](N)C3)c(-c3cnn(C(F)(F)F)c3)cn2)n1` [Example 157, (S)-N-(4-(3-aminopiperidin-1-yl)-5-(1-(trifluoromethyl)-1H-pyrazol-4-yl)pyridin-2-yl)-2-(2,4-difluoro-6-methoxyphenyl)pyrimidin-4-amine hydrochloride], for which the IC50 was not above 10 nM.
With `COc1cccc(F)c1-c1nc(Nc2cc(N3CCC[C@H](N)C3)c(-c3cnn(C(F)F)c3)cn2)ccc1[N+](=O)[O-]` [Example 146, 4-((S)-3-aminopiperidin-1-yl)-5-(1-(difluoromethyl)-1H-pyrazol-4-yl)-N-(6-(2-fluoro-6-methoxyphenyl)-5-nitropyridin-2-yl)pyridin-2-amine hydrochloride] the figure was not above 10 nM; with `COc1cccc(F)c1-c1nc(Nc2cc(N3CCC[C@H](O)C3)c(-c3cnn(C(F)F)c3)cn2)ccc1[N+](=O)[O-]` [Example 145, (3S)-1-(5-(1-(difluoromethyl)-1H-pyrazol-4-yl)-2-((6-(2-fluoro-6-methoxyphenyl)-5-nitropyridin-2-yl)amino)pyridin-4-yl)piperidin-3-ol], not above 10 nM.
The same measure for `COc1cccc(F)c1-c1nccc(Nc2cc(N3CCC[C@H](N)C3)c(-c3ccc(N4CCOCC4)c(C)c3)cn2)n1` [Example 287, (S)-N-(4-(3-aminopiperidin-1-yl)-5-(3-methyl-4-morpholinophenyl)pyridin-2-yl)-2-(2-fluoro-6-methoxyphenyl)pyrimidin-4-amine hydrochloride]: not above 10 nM.
On to `COc1cc(F)cc(F)c1-c1nccc(Nc2cc(N3CCC[C@H](N)C3)c(C#CC3(C)CCOCC3)cn2)n1` [Example 311, (S)-N-(4-(3-aminopiperidin-1-yl)-5-((4-methyltetrahydro-2H-pyran-4-yl)ethynyl)pyridin-2-yl)-2-(2,4-difluoro-6-methoxyphenyl)pyrimidin-4-amine], for which the IC50 was not above 10 nM.
As for `COc1cccc(F)c1-c1nc(Nc2cc(N3CCC[C@H](N)C3)c(-c3ccc(N4CCOCC4)nc3)cn2)ccc1C#N` [Example 323, 6-((4-((S)-3-aminopiperidin-1-yl)-6′-morpholino-[3,3′-bipyridin]-6-yl)amino)-2-(2-fluoro-6-methoxyphenyl)nicotinonitrile hydrochloride], the 50% inhibitory concentration (IC50) is not above 10 nM.
As to `CNCc1cc(F)c(-c2nccc(Nc3cc(N4CCC[C@H](O)C4)c(-c4cnn(C5CCOCC5)c4)cn3)n2)c(OC)c1` [Example 190, (S)-1-(2-((2-(2-fluoro-6-methoxy-4-((methylamino)methyl)phenyl)pyrimidin-4-yl)amino)-5-(1-(tetrahydro-2H-pyran-4-yl)-1H-pyrazol-4-yl)pyridin-4-yl)piperidin-3-ol], the IC50 is not above 10 nM.
The same measure for `COc1cccc(F)c1-c1nccc(Nc2cc(N3CCCC(CC(F)(F)F)C3)c(-c3cnn(C4CCOCC4)c3)cn2)n1` (stereo not shown) [Example 84, 2-(2-fluoro-6-methoxyphenyl)-N-(5-(1-(tetrahydro-2H-pyran-4-yl)-1H-pyrazol-4-yl)-4-(3-(2,2,2-trifluoroethyl)piperidin-1-yl)pyridin-2-yl)pyrimidin-4-amine]: 10 to 50 nM; for `COc1cccc(F)c1-c1nccc(Nc2cc(N3CCC[C@H](O)C3)c(-c3ccc(C4CCOCC4)nc3)cn2)n1` [Example 31, (S)-1-(6-((2-(2-fluoro-6-methoxyphenyl)pyrimidin-4-yl)amino)-6′-(tetrahydro-2H-pyran-4-yl)-[3,3′-bipyridin]-4-yl)piperidin-3-ol]: not above 10 nM.
For `COc1cc(F)cc(F)c1-c1nc(Nc2cc(N3CCC[C@H](O)C3)c(CCC3CCOCC3)cn2)ccc1N` [Example 228, (3S)-1-(2-((5-amino-6-(2,4-difluoro-6-methoxyphenyl)pyridin-2-yl)amino)-5-(2-(tetrahydro-2H-pyran-4-yl)ethyl)pyridin-4-yl)piperidin-3-ol], the IC50 was in the range of 10 to 50 nM.
